Measured values published in patent publication US11654193B2, “Cancer treatment combinations” (The Regents of the University of California, priority 2016, dated 2023).
“Also recorded” adds a separate entry of the source. Like-named read-outs stand apart in the source and are kept apart here.

Key:
[1] = system: ROR-1×TCL1 leukemia cells; assay: ROR-1×TCL1 leukemia adoptive transfer in immunodeficient Rag2-/-γc-/- mice; format: in vivo; conditions: day 25; for numbers of splenic ROR-1×TCL1 leukemia cells, dose dependence: ibrutinib daily 15, 5, 1.67 mg/kg or single dose UC-961/cirmtuzumab 10, 3, 1 mg/kg
Experimental: ROR-1×TCL1 leukemia adoptive transfer study. […] ROR-1×TCL1 leukemia B cells (CD5B220^lowROR-1^+) were isolated from the spleen, enriched via density gradient centrifugation, suspended in sterile PBS, injected i.v. into Rag2^−/−γc^−/− recipient mice at 2×10^4 cells per animal. Samples used for transplantation were verified by flow cytometry to be >95% leukemia B cells. For dose dependent therapy of UC-961, recipient mice received either no treatment, or one dose i.v. injections of 10 mg/kg, 3 mg/kg and 1 mg/kg of UC-961 on day 1. […] All mice were sacrificed on day 25 and single-cell suspensions of splenocytes were purged of red blood cells by hypotonic lysis in ammonium-chloride-potassium (ACK) lysis solution, washed, suspended in 2% (wt/vol) BSA (Sigma) in PBS (pH=7.4) and stained for surface expression of CD3 (17A2), CD5 (53-7.3), B220 (RA3-6B2), and ROR-1 (4A5) using optimized concentrations of fluorochrome-conjugated mAbs. Cells were examined by four-color, multiparameter flow cytometry using a dual-laser FACSCalibur (BD) and the data were analyzed using FlowJo software (TreeStar). The total number of leukemia cells per spleen was calculated by determining the percent of CD5B220^lowROR-1^+ cells of total lymphocytes by flow cytometry and multiplying this number by the total spleen cell count.
(§1) ROR-1×TCL1 Leukemia Adoptive Transfer Study.

[2] = system: ROR-1×TCL1 leukemia cells; assay: ROR-1×TCL1 leukemia adoptive transfer in immunocompetent ROR-1-Tg mice; format: in vivo; conditions: cirmtuzumab 10 mg/kg weekly i.v. and/or ibrutinib 5 mg/kg daily via gavage, after 28 days
From the text: as §1
After 28 days, the animals were sacrificed and the spleen of each animal was examined.

[3] = system: natural killer cells, macrophages or neutrophils; conditions: cited from earlier work; for cell-mediated mechanisms induced by anti-CD20 antibodies rituximab, ofatumumab or obinutuzumab: purified systems or whole blood assays
[4] = system: cell lines or chronic lymphocytic leukemia samples; conditions: cited from earlier work
[5] = single dose UC-961/cirmtuzumab 1 mg/kg and/or ibrutinib 5 mg/kg daily

What does the source list for `C=CC(=O)N1CCC[C@@H](n2nc(-c3ccc(Oc4ccccc4)cc3)c3c(N)ncnc32)C1` [ibrutinib, 1-[(3R)-3-[4-Amino-3-(4-phenoxyphenyl)-1H-pyrazolo[3,4-d]pyrimidin-1-yl]piperidin-1-yl]prop-2-en-1-one]?
numbers of splenic ROR-1×TCL1 leukemia cells, dose dependence [1]: Dose-dependent inhibitory effect; numbers of splenic ROR-1×TCL1 leukemia cells, dose dependence ([1]; listed as Ibrutinib): inhibited the expansion of ROR-1×TCL1 leukemia cells in a dose-dependent manner; also recorded: reduced the numbers of splenic leukemia cells in a dose-dependent manner; percentage and total number of ROR-1×TCL1 leukemia cells per spleen [1, 5]: significantly lower; spleen size [1, 5]: significantly smaller spleens; mean proportion and leukemia cell number in the spleen [2]: significantly lower; spleen size [2]: significantly smaller spleens; cell-mediated mechanisms induced by anti-CD20 antibodies rituximab, ofatumumab or obinutuzumab [3]: strongly inhibited all cell-mediated mechanisms; cell-mediated mechanisms induced by anti-CD20 antibodies rituximab, ofatumumab or obinutuzumab ([3]; listed as Ibrutinib): interfered with the activity of the CD20 antibodies; complement activation or complement-mediated lysis ([4]; pre-treatment with ibrutinib): did not inhibit complement activation or complement-mediated lysis; direct cell death mediated by anti-CD20 antibodies ([4]; pretreatment with ibrutinib for 1 hour): did not increase direct cell death

What does the source list for `CC[C@H](Nc1ncnc2[nH]cnc12)c1nc2cccc(F)c2c(=O)n1-c1ccccc1` [idelalisib, 5-Fluoro-3-phenyl-2-[(15)-1-(7H-purin-6-ylamino)propyl]-4(3H)-quinazolinone]?
effect on immune cell-mediated mechanisms induced by anti-CD20 antibodies ([3]; 10 μM, compared with ibrutinib at the same concentration): weaker than those observed with ibrutinib; cell-mediated mechanisms induced by anti-CD20 antibodies rituximab, ofatumumab or obinutuzumab [3]: similarly inhibits the immune cell-mediated mechanisms
